Results as given in BigSolDB 2.1.

CCc1nnc(NC(=O)c2ccc([N+](=O)[O-])cc2)s1
solubility (mole fraction)
Settings	288.15 K	293.15 K	298.15 K	303.15 K	308.15 K	313.15 K	318.15 K
in ethanol	2.81e-05	3.17e-05	3.91e-05	4.87e-05	5.95e-05	7.34e-05	8.87e-05
in n-hexane	6.2e-06	7.4e-06	9.5e-06	1.19e-05	1.44e-05	1.79e-05	2.11e-05
in n-octanol	4.34e-05	5.22e-05	6.52e-05	8.06e-05	9.61e-05	0.000118	0.00014
